According to patent US12661355B2, “Compounds and methods for inducing UCP1 expression” (The Regents of the University of California, priority 2020, dated 2026):
“Also recorded” adds a separate entry of the source.

Assays:
[1] = system: NRVM; assay: Hypertrophic gene expression in neonatal rat ventricular myocytes; format: cell-based; details: 10 μM Z160 concomitantly with 60 μM isoproterenol or 50 μM phenylephrine, 2 days
Method: (§1) Rat H9c2 cells were grown in DMEM supplemented with 10% FBS, 25 mM glucose, 1 mM pyruvate, and 2 mM glutamine Neonatal rat ventricular myocytes (NRVM) were isolated and cultured as previously described. Briefly, 2-4 day old rats were sacrificed and myocytes and fibroblasts were isolated and separated using a Percoll density gradient. Following isolation, NRVMs were plated on gelatin-coated plates in DMEM containing 10% FBS, 25 mM glucose, 1 mM pyruvate, and 2 mM glutamine The next day, FBS was replaced by 1× insulin-transferrin-selenium supplement and the cells were treated with vehicle or 10 μM Z160 for 2 days, with or without 60 μM isoproterenol or 50 μM phenylephrine.
RNA levels were measured by qPCR according to known methods. Briefly, RNA was extracted with TRIzol (Invitrogen) and reverse transcribed with iScript (Bio-Rad). Real-time PCR analysis was performed with a CFX Connect (Bio-Rad).

[2] = biological target: T1, PKA subunits (C-α and RII-β) (Mus musculus, UniProt P05132+P31324); assay: CETSA in brown adipocytes, PKA subunits; format: binding; details: 10 μM for 8 h
T1 construct: endogenous in cells; host or cells: immortalized mouse brown adipocytes
Method: CETSA assays were performed according to known methods. Briefly, differentiated brown adipocytes (one 10 cm dish per treatment) were treated with vehicle or compounds, trypsinized, counted, and re-suspended in approximately 450 μl PBS containing protease inhibitors (volumes were adjusted to have the same number of cells in each treatment). For each sample, 18 μl was distributed into each of 7 PCR tubes. Samples were heated using a thermocycler with a temperature gradient (iCycler, Biorad) for 3 min, followed by 3 min at room temperature, and then snap-frozen in liquid N2. After two freeze-thaw cycles, samples were centrifuged at 20,000 g for 15 min at 4° C., and the supernatants were transferred to another set of tubes. Proteins were analyzed by immunoblotting.
The PKA tetramer consists of two catalytic and two regulatory subunits. In the mouse, these are catalytic subunits C-α and C-β, and regulatory subunits RI and RII, each with α and β isoforms (RI-α, RI-β, RII-α, RII-β). […]
The potential interaction of Z160 with PKA subunits and AKAPs was assessed first by identifying which PKA subunits and AKAP isoforms are normally present in BAT. […] To perform the CETSA assays, cultured brown adipocytes were incubated with 10 μM Z160 for 8 h, after which the thermal shift was analyzed by Western blot.

[3] = biological target: T2, AKAP13 (Rattus norvegicus, UniProt F1M3G7); assay: DARTS in H9c2 cell extracts, AKAP13; format: binding; details: 20 μM, 1 h
T2 construct: DARTS assay in H9c2 cell extracts treated with vehicle or 20 μM Z160 for 1 h; endogenous in cells; host or cells: rat H9c2 cells
Method: as §1
ARTS assays were performed according to known methods. Briefly, BAT or cells within a 10 cm dish were lysed with 600 μl M-PER buffer containing protease and phosphatase inhibitors. Debris was pelleted by centrifugation at 18,000 g for 10 min at 4° C., and the lysates were harvested and supplemented with TNC buffer (50 mM Tris-HCl, 50 mM NaCl, 10 mM CaCl2). The lysates were split into two tubes and treated with either vehicle or 20 μM Z160 for 1 h at room temperature. For experiment with BAT, 100 μg of lysate was incubated with different Z160 concentrations. […]

T2 sequence (F1M3G7 whole entry): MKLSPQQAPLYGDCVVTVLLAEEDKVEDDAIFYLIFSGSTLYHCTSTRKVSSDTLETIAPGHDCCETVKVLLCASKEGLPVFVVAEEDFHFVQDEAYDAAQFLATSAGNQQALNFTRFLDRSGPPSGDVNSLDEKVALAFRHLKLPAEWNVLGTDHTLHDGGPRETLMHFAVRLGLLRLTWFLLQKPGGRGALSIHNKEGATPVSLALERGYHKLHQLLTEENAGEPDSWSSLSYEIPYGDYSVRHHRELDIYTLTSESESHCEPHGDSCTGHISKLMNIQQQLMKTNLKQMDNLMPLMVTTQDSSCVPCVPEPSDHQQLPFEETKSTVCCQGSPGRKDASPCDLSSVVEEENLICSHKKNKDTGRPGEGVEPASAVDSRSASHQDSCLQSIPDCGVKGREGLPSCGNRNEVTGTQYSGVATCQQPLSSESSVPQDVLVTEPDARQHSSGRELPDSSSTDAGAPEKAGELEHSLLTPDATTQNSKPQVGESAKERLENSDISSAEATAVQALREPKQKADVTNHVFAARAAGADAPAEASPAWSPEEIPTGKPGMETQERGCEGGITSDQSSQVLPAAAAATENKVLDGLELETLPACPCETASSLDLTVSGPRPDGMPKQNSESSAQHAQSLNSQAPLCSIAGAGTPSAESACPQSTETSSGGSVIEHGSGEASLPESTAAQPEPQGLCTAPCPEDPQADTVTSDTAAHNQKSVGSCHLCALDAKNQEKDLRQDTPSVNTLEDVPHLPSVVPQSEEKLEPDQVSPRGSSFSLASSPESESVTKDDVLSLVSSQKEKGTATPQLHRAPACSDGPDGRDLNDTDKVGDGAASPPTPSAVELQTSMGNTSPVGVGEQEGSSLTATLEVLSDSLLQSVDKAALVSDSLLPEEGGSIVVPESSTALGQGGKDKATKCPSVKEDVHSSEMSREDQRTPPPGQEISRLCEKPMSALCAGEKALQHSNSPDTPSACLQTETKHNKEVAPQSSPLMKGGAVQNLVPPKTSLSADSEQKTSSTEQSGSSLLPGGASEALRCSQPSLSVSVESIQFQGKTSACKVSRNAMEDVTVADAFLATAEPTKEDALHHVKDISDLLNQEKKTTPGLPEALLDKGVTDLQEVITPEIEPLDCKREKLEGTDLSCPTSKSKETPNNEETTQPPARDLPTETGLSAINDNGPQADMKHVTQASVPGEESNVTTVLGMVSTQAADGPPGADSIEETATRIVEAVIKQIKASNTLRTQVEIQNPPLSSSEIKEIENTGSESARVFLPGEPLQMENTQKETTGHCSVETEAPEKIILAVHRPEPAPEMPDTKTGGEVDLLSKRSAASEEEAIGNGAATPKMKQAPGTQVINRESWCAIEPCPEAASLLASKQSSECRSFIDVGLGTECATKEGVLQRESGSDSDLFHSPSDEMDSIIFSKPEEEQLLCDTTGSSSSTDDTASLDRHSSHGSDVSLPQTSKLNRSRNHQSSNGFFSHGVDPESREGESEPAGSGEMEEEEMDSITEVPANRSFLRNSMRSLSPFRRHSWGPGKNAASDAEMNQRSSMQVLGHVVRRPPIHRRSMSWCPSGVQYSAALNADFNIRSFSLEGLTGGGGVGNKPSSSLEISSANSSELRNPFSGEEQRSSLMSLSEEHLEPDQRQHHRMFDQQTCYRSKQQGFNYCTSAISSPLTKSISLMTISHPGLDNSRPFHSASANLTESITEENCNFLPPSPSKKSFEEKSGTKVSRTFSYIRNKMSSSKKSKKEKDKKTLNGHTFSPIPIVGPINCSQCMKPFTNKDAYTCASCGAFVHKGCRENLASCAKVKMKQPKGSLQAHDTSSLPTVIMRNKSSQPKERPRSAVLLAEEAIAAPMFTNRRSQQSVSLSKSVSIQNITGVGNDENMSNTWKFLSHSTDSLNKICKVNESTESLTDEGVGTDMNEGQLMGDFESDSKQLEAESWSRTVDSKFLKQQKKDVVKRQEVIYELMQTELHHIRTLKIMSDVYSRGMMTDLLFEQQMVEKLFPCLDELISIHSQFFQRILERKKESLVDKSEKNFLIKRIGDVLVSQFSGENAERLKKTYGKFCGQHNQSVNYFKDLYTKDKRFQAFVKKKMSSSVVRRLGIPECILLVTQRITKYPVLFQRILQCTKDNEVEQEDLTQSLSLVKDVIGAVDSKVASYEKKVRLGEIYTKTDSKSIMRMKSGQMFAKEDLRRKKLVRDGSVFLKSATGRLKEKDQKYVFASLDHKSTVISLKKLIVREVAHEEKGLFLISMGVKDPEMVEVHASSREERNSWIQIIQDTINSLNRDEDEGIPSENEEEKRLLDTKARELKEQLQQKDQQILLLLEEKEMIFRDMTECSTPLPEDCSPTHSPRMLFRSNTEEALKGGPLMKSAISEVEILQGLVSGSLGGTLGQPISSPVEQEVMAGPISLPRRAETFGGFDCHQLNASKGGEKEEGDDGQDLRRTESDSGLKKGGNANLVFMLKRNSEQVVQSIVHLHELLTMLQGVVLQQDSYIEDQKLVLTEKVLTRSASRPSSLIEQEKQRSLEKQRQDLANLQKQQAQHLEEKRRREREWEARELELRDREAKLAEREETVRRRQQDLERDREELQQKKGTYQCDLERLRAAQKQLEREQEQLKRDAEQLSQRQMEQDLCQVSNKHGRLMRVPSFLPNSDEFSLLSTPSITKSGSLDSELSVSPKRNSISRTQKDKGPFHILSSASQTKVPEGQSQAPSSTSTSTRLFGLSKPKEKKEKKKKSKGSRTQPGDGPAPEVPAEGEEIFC

COc1ccc(NC(=O)CSc2nc3ccccc3c(=O)[nH]2)c(OC)c1 [Z160]
effect on hypertrophic gene expression profile (Nppa, Nppb, Pln) induced by isoproterenol or phenylephrine [1]: prevented the induction of a hypertrophic gene expression profile; also recorded: reverses the effect of ISO and PE
denaturation (thermal shift) of PKA subunits C-α and RII-β [2]: did not show differences in denaturation
pronase susceptibility of AKAP13 [3]: altered pronase susceptibility; also recorded: change of AKAP13 conformation
